Data set [1] is described as follows: in vitro. The procedure: (§1) Stocks (10 mM) of test compounds were diluted to 5 μM with plasma or tissue homogenate and dialyzed at 37 °C for 6 hours in a shaking incubator. After incubation aliquots of both plasma or tissue homogenate and buffer from the device were taken and added to equal volumes of blank buffer and plasma or tissue homogenate respectively. Samples were then diluted in acetonitrile containing an internal standard prior to centrifugation and analysis of the supernatants by LC-MS/MS. The fu, plasma was calculated using Equation 1:(1) fu,plasma=Concbuffer chamber/Concsample chamber
(§2) Unbound fractions of test drugs in plasma (fu,plasma) and brain tissue (fu,brain). For compounds with existing rat plasma or brain protein-binding data from literature or internal studies, values were directly adopted.

Data set [2] can be described thus: in vitro. As to the method: as §1
Rat fraction unbound in brain (fu, brain) was determined as the ratio of concentration in buffer to that in brain.
as §2
This is another data set of the same source.

A further data set can be described thus: in vivo. The settings on record: rat. An excerpt:
In vivo unbound brain distribution data (Kp,uu,Brain) for 16 drugs and total brain distribution data (Kp,Brain) for 16 drugs was acquired from literature. […] For each tested compound, fifteen rats were randomly divided into five groups of three rats each. […] The time of execution of the rats by CO2 inhalation after administration was optimized according to the in vivo elimination rate to achieve five concentrations of different time points. After the rats were euthanized, cardiac puncture was performed immediately to remove as much whole blood as possible (~7 ml) from the systemic circulation (Quantitatively aliquot 0.2 ml of whole blood for the determination of drug concentration in plasma). Afterwards, the brain tissue was collected immediately and rinsed repeatedly with ice-cold saline 3 times. Then, the surface saline was blotted dry with clean filter paper to remove as much residual drug in the blood vessels as possible. Plasma samples were prepared by centrifugation of the blood samples at 2,500 g for 10 minutes at 4 °C. All brain samples were homogenized by adding 4-fold volume water. All samples were stored at -40 °C before LC-MS/MS analysis. […] The brain tissue partition coefficient (Kp, brain) and brain-to-plasma unbound drug partition ratio (Kp,uu, brain) are calculated according to the following formulas, respectively: Kp,brain=AUC(0−∞,brain)/AUC(0−∞,plasma)Kp,uu,brain=Kp,brain×(fu,tissue/fu,plasma)
Free brain-to-plasma distribution coefficients (Kp,uu,brain) of 41 drugs. Brain distribution coefficients (Kp,uu,brain) were calculated for 41 drugs. […] Plasma and brain concentration-time profiles were generated, and AUC(0-t) values for both matrices were calculated using WinNolin 8.1. Kp,brain was derived as the ratio of brain-to-plasma AUC(0-t).
Kp,uu,brain values were computed by normalizing Kp,brain to unbound fractions (fu,plasma and fu,brain).

The test system of data set [3] is P-gp (human MDR1). Put plainly: in vitro. The settings on record: pig, LLC-PK1, pH 7.4.
Data set [4] can be described thus: Bidirectional transport across LLC-PK1 MOCK monolayer (Transwell).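 As to all read-outs here: compound quantified by LC-MS/MS in donor and receiver wells, efflux ratio as B-A over A-B Papp, recovery relative to initial donor amount.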 The note with it: pig; for recovery at 2 h, 2 µM: LLC-PK1 MOCK cell monolayer (Transwell).
Data set [5] has as its system P-gp (human MDR1). Put plainly: Bidirectional transport across LLC-PK1-MDR1 monolayer stably expressing human MDR1 (P-gp) (Transwell).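 Also: 2 h incubation at 37 °C, receiver HBSS with 10 mM Hepes plus 1% BSA, LC-MS/MS of donor and receiver, recovery as receiver plus donor amount over initial donor amount.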 The note with it: pig.
For data set [6] the following is noted: cited from earlier work.
A short description of data set [7]: in vitro. The settings on record: pig, LLC-PK1 MOCK cell monolayer (Transwell), pH 7.4.
[8] abbreviates: LLC-PK1, pH 7.4, Papp A-B, LLC-PK1 MOCK, 2 µM, 2 h, mean ± s, n = 3, BLQ = below 2 nM.
Where [9] appears, read: LLC-PK1, pH 7.4, Papp A-B, LLC-PK1-MDR1, 2 µM, 2 h, mean ± s, n = 3.

Data on eight molecules can be found in PMC12667295, “A surrogate barrier model for high-throughput blood-brain barrier permeability prediction: integrating LLC-PK1-MOCK/MDR1 Cells and lysosomal trapping correction” (Drug Delivery, 2025).

Structures are written as SMILES. Where two headings read alike, the source gives them in different places.

A word on the fraction unbound: it is the share of the substance not bound to proteins or other matrix. Low values mean extensive binding, high ones weak binding. Broadly, the Papp B→A is the apparent permeability from the basolateral to the apical side of a cell layer. As a reminder, the Papp A→B is how fast a substance crosses the layer from the apical side. Regarding `Cc1cc(=O)n(-c2ccccc2)n1C` [Antipyrine], the “Protein binding in plasma” value in “in vitro [1]” (rat, 6 h, 5 µM) stood at 15.0 ± 5.22%. Also, the fraction unbound at 6 h, 5 µM in the data set “in vitro [2]” (rat, brain homogenate) is 0.809. In addition, the Kp uu in “in vivo” (SD, iv, 1 mg/kg) is 0.72. The Kp in the data set “in vivo” (SD, iv, 1 mg/kg, Kp, Brain) is 0.755. Further, the recovery at 2 h, 2 µM is 113 ± 1.41% with P-gp (human MDR1) [3]; 116 ± 7.41% in data set [4] (pH 7.4, Recovery A-B, LLC-PK1 MOCK, 2 µM, 2 h, n = 3); 95.2 ± 2.32% in data set [4] (pH 7.4, Recovery B-A, LLC-PK1 MOCK, 2 µM, 2 h, n = 3). Besides, the Papp B→A at 2 h, 2 µM in data set [4] (LLC-PK1, pH 7.4) stood at 23.6 ± 1.43 ×10⁻⁶ cm/s; in the data set with P-gp (human MDR1) [5] (LLC-PK1, pH 7.4), 28.9 ± 1.75 ×10⁻⁶ cm/s. The Papp A→B at 2 h, 2 µM in data set [4] (setting [8]) turned out to be 31.4 ± 3.13 ×10⁻⁶ cm/s; in the data set with P-gp (human MDR1) [5] (LLC-PK1, pH 7.4), 30.9 ± 1.46 ×10⁻⁶ cm/s.

For `CCC1(c2cnc[nH]2)Cc2ccccc2C1` [Atipamezole], in data set [6] (ref Li [2019]), the “Kp, Brain” value is listed as 4.40. For the same molecule, the “Kp,uu,Brian” value in data set [6] (ref Li [2019]) was 1.700. Besides, the apparent permeability from basolateral to apical (Papp B→A) at 2 h, 2 µM in data set [4] (LLC-PK1, pH 7.4) turned out to be 30.2 ± 4.52 ×10⁻⁶ cm/s; in the data set on P-gp (human MDR1) [5] (LLC-PK1, pH 7.4), 27.6 ± 1.5 ×10⁻⁶ cm/s. Moreover, the Papp A→B at 2 h, 2 µM worked out at 33.9 ± 1.72 ×10⁻⁶ cm/s in data set [4] (setting [8]) and 33.7 ± 5.21 ×10⁻⁶ cm/s in the data set with P-gp (human MDR1) [5] (LLC-PK1, pH 7.4).

As to `CC(NC(C)(C)C)C(=O)c1cccc(Cl)c1` (stereo not shown) [Bupropion], in data set [6] (ref Fridén [2009]), the “Kp, Brain” value was 9.78 and the “Kp,uu,Brian” value is given as 2.000. Besides, the basolateral-to-apical permeability (Papp B→A) at 2 h, 2 µM in data set [4] (LLC-PK1, pH 7.4) came to 23.8 ± 0.67 ×10⁻⁶ cm/s. Further, in data set [4] (setting [8]), the Papp A→B at 2 h, 2 µM stood at 27.3 ± 2.88 ×10⁻⁶ cm/s. In the data set on P-gp (human MDR1) [5] (LLC-PK1, pH 7.4), this molecule showed an apparent permeability from apical to basolateral (Papp A→B) at 2 h, 2 µM of 26.6 ± 2.58 ×10⁻⁶ cm/s and a Papp B→A at 2 h, 2 µM of 19.5 ± 1 ×10⁻⁶ cm/s.

With `Cn1c(=O)c2c(ncn2C)n(C)c1=O` [Caffeine], the fraction unbound at 6 h, 5 µM in the data set “in vitro [1]” (rat, plasma) was 0.772; in the data set “in vitro [2]” (rat, brain homogenate) it was 0.719. Also, in “in vivo”, the Kp uu stood at 0.576. The same molecule registered a recovery at 2 h, 2 µM in the data set “in vitro [7]” of 121 ± 2.48%. In addition, in data set [6] (ref Bohnert [2016]), the “Kp, Brain” value is reported as 0.618. Further, the Papp B→A at 2 h, 2 µM in data set [4] (LLC-PK1, pH 7.4) was 34.1 ± 1.49 ×10⁻⁶ cm/s; in the data set on P-gp (human MDR1) [5] (LLC-PK1, pH 7.4), 33.3 ± 1.49 ×10⁻⁶ cm/s. The Papp A→B at 2 h, 2 µM in data set [4] (setting [8]) amounted to 34 ± 1.22 ×10⁻⁶ cm/s; in the data set with P-gp (human MDR1) [5] (setting [9]) it was 36.4 ± 1.42 ×10⁻⁶ cm/s.

As for `CN/C(=N/CCSCc1nc[nH]c1C)NC#N` [Cimetidine], the fraction unbound at 6 h, 5 µM in “in vitro [1]” (rat, plasma) is 0.722; in the data set “in vitro [2]” (rat, brain homogenate) it was 0.655. The Kp uu in “in vivo” (SD, iv, 1 mg/kg) amounted to 0.008. For the same molecule, the Kp in the data set “in vivo” (SD, iv, 1 mg/kg, Kp, Brain) came to 0.007. For the same molecule, the recovery at 2 h, 2 µM in the data set “in vitro [7]” was determined as 96.9 ± 13.3%; in the data set on P-gp (human MDR1) [3], 87.4 ± 9.65%. In addition, the Papp B→A at 2 h, 2 µM in data set [4] (LLC-PK1, pH 7.4) was found to be 0.28 ± 0.07 ×10⁻⁶ cm/s; in the data set on P-gp (human MDR1) [5] (LLC-PK1, pH 7.4) it was 33.9 ± 4.3 ×10⁻⁶ cm/s. The results for the Papp A→B at 2 h, 2 µM (in data set [4] (setting [8]); in the data set with P-gp (human MDR1) [5] (setting [9])) were 0.69 ± 0.07 ×10⁻⁶ cm/s and 1.32 ± 0.31 ×10⁻⁶ cm/s, respectively.

One may read the efflux ratio as the permeability from basolateral to apical divided by that in the opposite direction, in the common usage. For `COc1ccc2c(c1)[C@]13CCCC[C@@H]1[C@H](C2)N(C)CC3` [Dextromethorphan], in “in vitro [1]”, the fraction unbound at 6 h, 5 µM was 0.35. The molecule further showed a fraction unbound at 6 h, 5 µM in the data set “in vitro [2]” of 0.033. Further, in “in vivo” (SD, in vivo, iv, 1 mg/kg), the Kp was 11.5 and the Kp uu worked out at 0.825. This molecule also yielded a recovery at 2 h, 2 µM with P-gp (human MDR1) [3] of 93.6 ± 6.54%. In data set [4] (LLC-PK1, pH 7.4), the Papp A→B at 2 h, 2 µM was 35.5 ± 2.09 ×10⁻⁶ cm/s; the Papp B→A at 2 h, 2 µM was 25.9 ± 0.91 ×10⁻⁶ cm/s; the efflux ratio at 2 h, 2 µM amounted to 0.73. Also, in the data set on P-gp (human MDR1) [5] (LLC-PK1, pH 7.4), the Papp A→B at 2 h, 2 µM stood at 18.8 ± 0.12 ×10⁻⁶ cm/s; the Papp B→A at 2 h, 2 µM stood at 21.9 ± 3.18 ×10⁻⁶ cm/s; the efflux ratio at 2 h, 2 µM was found to be 1.17.

For the molecule `CN(C)CCOC(c1ccccc1)c1ccccc1` [Diphenhydramine], the recovery at 2 h, 2 µM in “in vitro [7]” was 101 ± 7.46%.

As for `COc1ccc2c(c1)c(CC(=O)O)c(C)n2C(=O)c1ccc(Cl)cc1` [Indomethacin], the recovery at 2 h, 2 µM in “in vitro [7]” came to 109 ± 5.97%. The recovery at 2 h, 2 µM in the data set with P-gp (human MDR1) [3] was 99.7 ± 4.24%. Moreover, in data set [6] (ref Fridén [2009]), the “Kp, Brain” value is given as 0.01 and the “Kp,uu,Brian” value is given as 0.11. In addition, in data set [4] (LLC-PK1, pH 7.4), the Papp B→A at 2 h, 2 µM amounted to 18.9 ± 0.31 ×10⁻⁶ cm/s and the efflux ratio at 2 h, 2 µM came out at 1.18. In data set [4] (setting [8]), this molecule showed a Papp A→B at 2 h, 2 µM of 16.1 ± 2.07 ×10⁻⁶ cm/s. Further, in the data set with P-gp (human MDR1) [5] (LLC-PK1, pH 7.4), the Papp A→B at 2 h, 2 µM amounted to 14.9 ± 1.29 ×10⁻⁶ cm/s; the Papp B→A at 2 h, 2 µM amounted to 20.3 ± 2.74 ×10⁻⁶ cm/s; the efflux ratio at 2 h, 2 µM was 1.36.
